From patent US10144742B2 (Millennium Pharmaceuticals, Inc., priority 2014, dated 2018)
Like-named read-outs stand apart in the source and are kept apart here.

What was measured:
hNAMPT protein = hNAMPT protein (Homo sapiens (Human), UniProt P43490); test: NAMPT enzyme assay (TR-FRET/HTRF, BodiPY ligand, anti 6His-Tb); assay type: binding; details: for IC50: NAMPT IC50 range class, read-out: IC50; for inhibition at 1 µM: read-out: Percent Inhibition
Outline: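 TR-FRET binding assay in which His-tagged human NAMPT with anti-6His-Tb is displaced by compound from a BodiPY ligand, incubated 1 h at rt in the dark. Excitation was at 320 nm, with the 520/486 nm emission ratio read. IC50 was fitted from inhibition relative to DMSO controls.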

PC3 cells = test: PC3 growth inhibition (Cell-titer glo, 72 hours); assay type: cell-based; details: Homo sapiens, PC-3, PC3 cells, 72 hours, Cell-titer glo, read-out: Percent Inhibition (PC3 growth inhibition); for inhibition at 1 µM: compound concentration 1 μM; for inhibition at 1.667 µM: compound concentration 1.667 μM
Outline: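 PC3 cells in RPMI1640 seeded overnight at 37 °C, 5% CO2, then exposed to compound diluted in AIM serum-free medium for 72 h. Viability by CellTiter-Glo luminescence vs DMSO controls; single-concentration % remaining viability (1 μM or 1.667 μM), or GI50/LD50 from curves.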

Chain of hNAMPT protein (P43490 whole entry): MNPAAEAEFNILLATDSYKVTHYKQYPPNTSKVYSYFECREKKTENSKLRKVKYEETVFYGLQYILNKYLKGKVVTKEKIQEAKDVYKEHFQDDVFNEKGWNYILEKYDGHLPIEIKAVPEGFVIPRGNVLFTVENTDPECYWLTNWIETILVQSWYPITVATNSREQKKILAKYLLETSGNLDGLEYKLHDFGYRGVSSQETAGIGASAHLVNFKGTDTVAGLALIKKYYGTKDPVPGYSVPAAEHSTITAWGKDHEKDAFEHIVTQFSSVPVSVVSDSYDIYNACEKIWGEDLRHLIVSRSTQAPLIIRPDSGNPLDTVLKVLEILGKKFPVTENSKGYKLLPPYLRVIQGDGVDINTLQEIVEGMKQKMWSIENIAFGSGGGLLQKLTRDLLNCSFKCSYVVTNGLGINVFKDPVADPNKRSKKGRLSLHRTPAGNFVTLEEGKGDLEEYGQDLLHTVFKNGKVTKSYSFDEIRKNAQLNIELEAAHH

| SMILES | IC50 (hNAMPT protein) [nM] | inhibition at 1 µM (hNAMPT protein; compound concentration 1 μM) [%] | inhibition at 1 µM (PC3 cells) [%] | inhibition at 1.667 µM (PC3 cells) [%] | inhibition at 1.852 µM (PC3 cells; compound concentration 1.852 μM) [%] | inhibition at 1 µM (hNAMPT protein) [%] |
| --- | --- | --- | --- | --- | --- | --- |
| Cn1cc2c(n1)OCCN(C(=O)c1ccc3nc(-c4ccc(F)cc4)c(-c4ccc(F)cc4)nc3c1)C2 [Compound I-68, [2,3-bis(4-fluorophenyl)quinoxalin-6-yl](2-methyl-2,4,6,7-tetrahydro-5H-pyrazolo[4,3-f][1,4]oxazepin-5-yl)methanone] | 2000 to 10000 | 16 | 101 |  |  |  |
| O=C(NCCCn1ccnc1)c1ccc2nc(-c3ccccc3)c(-c3ccc4nccn4c3)nc2c1 [Compound I-69, N-[3-(1H-imidazol-1-yl)propyl]-3-(imidazo[1,2-a]pyridin-6-yl)-2-phenylquinoxaline-6-carboxamide] | 100 to 500 | 75 | 0 |  |  |  |
| COc1cccc(-c2nc3cc(C(=O)NCCCc4cccnc4)ccc3nc2N2CCC(N3CCOCC3)CC2)c1 [Compound I-70, 3-(3-methoxyphenyl)-2-[4-(morpholin-4-yl)piperidin-1-yl]-N-[3-(pyridin-3-yl)propyl]quinoxaline-6-carboxamide] | < 100 | > 99 |  | 2 |  |  |
| O=C(CCCn1ccnc1)Nc1ccc2nc(-c3ccc(F)cc3)c(-c3ccc(F)cc3)nc2c1 [Compound I-72, N-[2,3-Bis(4-fluorophenyl)quinoxalin-6-yl]-4-(1H-imidazol-1-yl)butanamide] | 1000 to 2000 | 46 | 2 |  |  |  |
| COc1cccc(-c2nc3cc(C(=O)NCCc4cccnc4)ccc3nc2Cl)c1 [Compound I-73, 2-Chloro-3-(3-methoxyphenyl)-N-[2-(pyridin-3-yl)ethyl]quinoxaline-6-carboxamide] | 1000 to 2000 | 13 |  |  | > 99 |  |
| CC(C)(C)OC(=O)NC1CCN(C2CCN(c3nc4ccc(C(=O)NCCCn5ccnc5)cc4nc3-c3ccccc3)CC2)CC1 [Compound I-74, tert-Butyl [1′-(6-{[3-(1H-imidazol-1-yl)propyl]carbamoyl}-3-phenylquinoxalin-2-yl)-1,4′-bipiperidin-4-yl]carbamate] | < 100 | 100 | -2 |  |  |  |
| O=C(c1ccc2nc(-c3ccc(F)cc3)c(-c3ccc(F)cc3)nc2c1)N1CCc2[nH]ccc2C1 [Compound I-75, [2,3-bis(4-fluorophenyl)quinoxalin-6-yl](1,4,6,7-tetrahydro-5H-pyrrolo[3,2-c]pyridin-5-yl)methanone] | 2000 to 10000 | 16 | 96 |  |  |  |
| O=C(NCc1ccccn1)c1ccc2nc(-c3ccccc3)c(-c3ccccc3)nc2c1 [Compound I-76, 2,3-diphenyl-N-(pyridin-2-ylmethyl)quinoxaline-6-carboxamide] | 2000 to 10000 | 29 | 92 |  |  |  |
| O=C(NCCCc1nccs1)c1ccc2nc(N3CCC(O)CC3)c(-c3ccc(F)cc3)nc2c1 [Compound I-77, 3-(4-Fluorophenyl)-2-(4-hydroxypiperidin-1-yl)-N-[3-(1,3-thiazol-2-yl)propyl]quinoxaline-6-carboxamide] | 100 to 500 | 86 |  | > 99 |  |  |
| COC1CCN(c2nc3ccc(C(=O)NCCCc4ncc[nH]4)cc3nc2-c2ccc(F)cc2)CC1 [Compound I-78, 3-(4-fluorophenyl)-N-[3-(1H-imidazol-2-yl)propyl]-2-(4-methoxypiperidin-1-yl)quinoxaline-6-carboxamide] | < 100 | > 99 |  | 2 |  |  |
| O=C(NCCCn1ccnc1)c1ccc2nc(-c3ccccc3)c(-c3ccc(Cl)cc3)nc2c1 [Compound I-79, 3-(4-chlorophenyl)-N-[3-(1H-imidazol-1-yl)propyl]-2-phenylquinoxaline-6-carboxamide] | < 100 | 93 | -8 |  |  |  |
| O=C(NCCCn1ccnc1)c1ccc2nc(Oc3ccccc3)c(-c3ccccc3)nc2c1 [Compound I-80, N-[3-(1H-Imidazol-1-yl)propyl]-2-phenoxy-3-phenylquinoxaline-6-carboxamide] | 500 to 1000 |  | 1 |  |  | 65 |
